# System: 616215-338-R-J1-PDC complex spheroid viability
# Test: Anticancer human tumor 616215-338-R-J1-PDC patient-derived colon adenocarcinoma cell line growth inhibition [POLQ]
# Settings: for IC50: curve of first compound; for viability, T/C: stronger effect = lower value
# Outline: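 Complex spheroid viability model combining PDC tumour cells with endothelial (HUVEC) and MSC stromal cells. Novobiocin, ART-558 or RP6685 were tested singly and in combination with standard and investigational anticancer drugs. Each was titrated in half-log steps from near clinical Cmax, or from 10 microM where Cmax was unknown.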
# [1] = second compound 0.0316 µM, first compound 0.0316 µM
# [2] = second compound 0.0316 µM, first compound 0.1 µM
# [3] = second compound 0.0316 µM, first compound 0.316 µM
# [4] = second compound 0.0316 µM, first compound 1 µM
# [5] = second compound 0.0316 µM, first compound 3.16 µM
# [6] = second compound 0.0316 µM, first compound 10 µM
# [7] = second compound 0.1 µM, first compound 0.0316 µM
# [8] = second compound 0.1 µM, first compound 0.1 µM
# [9] = second compound 0.1 µM, first compound 0.316 µM
# [10] = second compound 0.1 µM, first compound 1 µM
# [11] = second compound 0.1 µM, first compound 3.16 µM
# [12] = second compound 0.1 µM, first compound 10 µM
# [13] = second compound 0.316 µM, first compound 0.0316 µM
# [14] = second compound 0.316 µM, first compound 0.1 µM
# [15] = second compound 0.316 µM, first compound 0.316 µM
# [16] = second compound 0.316 µM, first compound 1 µM
# [17] = second compound 0.316 µM, first compound 3.16 µM
# [18] = second compound 0.316 µM, first compound 10 µM
# [19] = second compound 1 µM, first compound 0.0316 µM
# [20] = second compound 1 µM, first compound 0.1 µM
# [21] = second compound 1 µM, first compound 0.316 µM
# [22] = second compound 1 µM, first compound 1 µM
# [23] = second compound 1 µM, first compound 3.16 µM
# [24] = second compound 1 µM, first compound 10 µM
# [25] = second compound 3.16 µM, first compound 0.0316 µM
# [26] = second compound 3.16 µM, first compound 0.1 µM
# [27] = second compound 3.16 µM, first compound 0.316 µM
# [28] = second compound 3.16 µM, first compound 1 µM
# [29] = second compound 3.16 µM, first compound 3.16 µM
# [30] = second compound 3.16 µM, first compound 10 µM
# [31] = second compound 10 µM, first compound 0.0316 µM
# [32] = second compound 10 µM, first compound 0.1 µM
# [33] = second compound 10 µM, first compound 0.316 µM
# [34] = second compound 10 µM, first compound 1 µM
# [35] = second compound 10 µM, first compound 3.16 µM
# [36] = second compound 10 µM, first compound 10 µM
# 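Also: spheroids exposed to compounds for one week before readout.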
# 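For viability, T/C in this document: percent viability relative to DMSO vehicle wells taken as 100%.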
structure (smiles),measurement,setting,value
C#Cc1c(F)ccc2cc(O)cc(-c3ncc4c(N5CC6CCC(C5)N6)nc(OCC56CCCN5CC(F)C6)nc4c3F)c12 (stereo not given) + COC1C(OC(N)=O)C(O)C(Oc2ccc3c(O)c(NC(=O)c4ccc(O)c(CC=C(C)C)c4)c(=O)oc3c2C)OC1(C)C,IC50,second compound 0.0316 µM,> 10 µM
same,IC50,second compound 0.1 µM,> 10 µM
same,IC50,second compound 0.316 µM,> 10 µM
same,IC50,second compound 1 µM,> 10 µM
same,IC50,second compound 3.16 µM,> 10 µM
same,IC50,second compound 10 µM,> 10 µM
same,"viability, T/C",[1],108%
same,"viability, T/C",[2],109%
same,"viability, T/C",[3],101%
same,"viability, T/C",[4],112%
same,"viability, T/C",[5],113%
same,"viability, T/C",[6],79.2%
same,"viability, T/C",[7],103%
same,"viability, T/C",[8],105%
same,"viability, T/C",[9],98.2%
same,"viability, T/C",[10],108%
same,"viability, T/C",[11],95.8%
same,"viability, T/C",[12],64.1%
same,"viability, T/C",[13],110%
same,"viability, T/C",[14],102%
same,"viability, T/C",[15],110%
same,"viability, T/C",[16],105%
same,"viability, T/C",[17],103%
same,"viability, T/C",[18],58.1%
same,"viability, T/C",[19],105%
same,"viability, T/C",[20],108%
same,"viability, T/C",[21],109%
same,"viability, T/C",[22],94.7%
same,"viability, T/C",[23],103%
same,"viability, T/C",[24],71.3%
same,"viability, T/C",[25],105%
same,"viability, T/C",[26],109%
same,"viability, T/C",[27],103%
same,"viability, T/C",[28],110%
same,"viability, T/C",[29],104%
same,"viability, T/C",[30],64%
same,"viability, T/C",[31],94.5%
same,"viability, T/C",[32],103%
same,"viability, T/C",[33],109%
same,"viability, T/C",[34],106%
same,"viability, T/C",[35],100%
same,"viability, T/C",[36],82.6%
CC1COCCN1c1cc(C2(O)CC3CCC(C2)O3)c2cnn(-c3ccn[nH]3)c2n1 (stereo not given) + COC1C(OC(N)=O)C(O)C(Oc2ccc3c(O)c(NC(=O)c4ccc(O)c(CC=C(C)C)c4)c(=O)oc3c2C)OC1(C)C,IC50,second compound 0.0316 µM,1.99 µM
same,IC50,second compound 0.1 µM,2.05 µM
same,IC50,second compound 0.316 µM,1.83 µM
same,IC50,second compound 1 µM,2.04 µM
same,IC50,second compound 3.16 µM,1.29 µM
same,IC50,second compound 10 µM,0.96 µM
same,"viability, T/C",[1],109%
same,"viability, T/C",[2],91.5%
same,"viability, T/C",[3],71%
same,"viability, T/C",[4],64.1%
same,"viability, T/C",[5],39.5%
same,"viability, T/C",[6],35.6%
same,"viability, T/C",[7],102%
same,"viability, T/C",[8],91.4%
same,"viability, T/C",[9],72%
same,"viability, T/C",[10],57.6%
same,"viability, T/C",[11],46.7%
same,"viability, T/C",[12],36.5%
same,"viability, T/C",[13],106%
same,"viability, T/C",[14],90.2%
same,"viability, T/C",[15],69.4%
same,"viability, T/C",[16],60.1%
same,"viability, T/C",[17],42.7%
same,"viability, T/C",[18],30.5%
same,"viability, T/C",[19],105%
same,"viability, T/C",[20],90.6%
same,"viability, T/C",[21],74.3%
same,"viability, T/C",[22],57.1%
same,"viability, T/C",[23],47.8%
same,"viability, T/C",[24],28%
same,"viability, T/C",[25],99.4%
same,"viability, T/C",[26],86.8%
same,"viability, T/C",[27],64.5%
same,"viability, T/C",[28],50.3%
same,"viability, T/C",[29],46.2%
same,"viability, T/C",[30],21.6%
same,"viability, T/C",[31],100%
same,"viability, T/C",[32],79.3%
same,"viability, T/C",[33],57.4%
same,"viability, T/C",[34],53.2%
same,"viability, T/C",[35],40.5%
same,"viability, T/C",[36],25.2%
CCc1cc2c(N3CCc4c(cc(Cn5ccnc5)cc4-c4cn(C)nc4C(F)(F)F)C3=O)cc(C)nc2c(OC)n1 + COC1C(OC(N)=O)C(O)C(Oc2ccc3c(O)c(NC(=O)c4ccc(O)c(CC=C(C)C)c4)c(=O)oc3c2C)OC1(C)C,IC50,second compound 0.0316 µM,8.7 µM
same,IC50,second compound 0.1 µM,9.03 µM
same,IC50,second compound 0.316 µM,6.27 µM
same,IC50,second compound 1 µM,8.55 µM
same,IC50,second compound 3.16 µM,8.18 µM
same,IC50,second compound 10 µM,9.28 µM
same,"viability, T/C",[1],101%
same,"viability, T/C",[2],109%
same,"viability, T/C",[3],109%
same,"viability, T/C",[4],110%
same,"viability, T/C",[5],60.5%
same,"viability, T/C",[6],48.6%
same,"viability, T/C",[7],106%
same,"viability, T/C",[8],111%
same,"viability, T/C",[9],99.5%
same,"viability, T/C",[10],92.9%
same,"viability, T/C",[11],64.6%
same,"viability, T/C",[12],48.8%
same,"viability, T/C",[13],106%
same,"viability, T/C",[14],109%
same,"viability, T/C",[15],99.7%
same,"viability, T/C",[16],91%
same,"viability, T/C",[17],59.8%
same,"viability, T/C",[18],43.1%
same,"viability, T/C",[19],113%
same,"viability, T/C",[20],105%
same,"viability, T/C",[21],104%
same,"viability, T/C",[22],85.1%
same,"viability, T/C",[23],57%
same,"viability, T/C",[24],49.2%
same,"viability, T/C",[25],113%
same,"viability, T/C",[26],110%
same,"viability, T/C",[27],102%
same,"viability, T/C",[28],86.6%
same,"viability, T/C",[29],76%
same,"viability, T/C",[30],44.2%
same,"viability, T/C",[31],115%
same,"viability, T/C",[32],99.2%
same,"viability, T/C",[33],95%
same,"viability, T/C",[34],77.3%
same,"viability, T/C",[35],53.8%
same,"viability, T/C",[36],51.8%
COc1cc2cc(C(=O)CCC(=O)O)sc2cc1OC + COC1C(OC(N)=O)C(O)C(Oc2ccc3c(O)c(NC(=O)c4ccc(O)c(CC=C(C)C)c4)c(=O)oc3c2C)OC1(C)C,IC50,second compound 0.0316 µM,> 10 µM
same,IC50,second compound 0.1 µM,> 10 µM
same,IC50,second compound 0.316 µM,> 10 µM
same,IC50,second compound 1 µM,> 10 µM
same,IC50,second compound 3.16 µM,> 10 µM
same,IC50,second compound 10 µM,> 10 µM
same,"viability, T/C",[1],110%
same,"viability, T/C",[2],103%
same,"viability, T/C",[3],102%
same,"viability, T/C",[4],105%
same,"viability, T/C",[5],102%
same,"viability, T/C",[6],113%
same,"viability, T/C",[7],95.4%
same,"viability, T/C",[8],101%
same,"viability, T/C",[9],109%
same,"viability, T/C",[10],97.7%
same,"viability, T/C",[11],103%
same,"viability, T/C",[12],97.2%
same,"viability, T/C",[13],115%
same,"viability, T/C",[14],94.9%
same,"viability, T/C",[15],107%
same,"viability, T/C",[16],95.1%
same,"viability, T/C",[17],101%
same,"viability, T/C",[18],101%
same,"viability, T/C",[19],102%
same,"viability, T/C",[20],88.2%
same,"viability, T/C",[21],106%
same,"viability, T/C",[22],98.7%
same,"viability, T/C",[23],99.7%
same,"viability, T/C",[24],106%
same,"viability, T/C",[25],107%
same,"viability, T/C",[26],99.9%
same,"viability, T/C",[27],109%
same,"viability, T/C",[28],102%
same,"viability, T/C",[29],99.6%
same,"viability, T/C",[30],113%
same,"viability, T/C",[31],109%
same,"viability, T/C",[32],91.7%
same,"viability, T/C",[33],102%
same,"viability, T/C",[34],104%
same,"viability, T/C",[35],97%
same,"viability, T/C",[36],102%
O=C(Nc1ccc(O)c(NS(=O)(=O)c2ccc(F)cc2)c1)c1ccc(-c2ccccc2)cc1 + COC1C(OC(N)=O)C(O)C(Oc2ccc3c(O)c(NC(=O)c4ccc(O)c(CC=C(C)C)c4)c(=O)oc3c2C)OC1(C)C,IC50,second compound 0.0316 µM,> 10 µM
same,IC50,second compound 0.1 µM,> 10 µM
same,IC50,second compound 0.316 µM,> 10 µM
same,IC50,second compound 1 µM,> 10 µM
same,IC50,second compound 3.16 µM,> 10 µM
same,IC50,second compound 10 µM,> 10 µM
same,"viability, T/C",[1],103%
same,"viability, T/C",[2],103%
same,"viability, T/C",[3],104%
same,"viability, T/C",[4],109%
same,"viability, T/C",[5],118%
same,"viability, T/C",[6],97.8%
same,"viability, T/C",[7],102%
same,"viability, T/C",[8],100%
same,"viability, T/C",[9],103%
same,"viability, T/C",[10],95.1%
same,"viability, T/C",[11],99.6%
same,"viability, T/C",[12],118%
same,"viability, T/C",[13],101%
same,"viability, T/C",[14],98.3%
same,"viability, T/C",[15],91.3%
same,"viability, T/C",[16],93.8%
same,"viability, T/C",[17],106%
same,"viability, T/C",[18],92.2%
same,"viability, T/C",[19],105%
same,"viability, T/C",[20],107%
same,"viability, T/C",[21],101%
same,"viability, T/C",[22],116%
same,"viability, T/C",[23],101%
same,"viability, T/C",[24],105%
same,"viability, T/C",[25],102%
same,"viability, T/C",[26],105%
same,"viability, T/C",[27],100%
same,"viability, T/C",[28],105%
same,"viability, T/C",[29],107%
same,"viability, T/C",[30],93.9%
same,"viability, T/C",[31],108%
same,"viability, T/C",[32],100%
same,"viability, T/C",[33],98.5%
same,"viability, T/C",[34],103%
same,"viability, T/C",[35],107%
same,"viability, T/C",[36],88.8%

# Reference: PubChem BioAssay AID1963843 (Molecular Pharmacology Branch, DTP, NCI, 2024)
